# US11739069B2, “Modulators of resistant androgen receptor” (priority 2012, dated 2023)
# Where a chain is given by its changes, count along the chain named. Entries after “also recorded” stand apart in the source; their conditions may differ.
# Assays:
# [1] = test system: VCaP cells expressing wild type androgen receptor; experiment: In vitro cell viability assay, VCaP cells expressing wild type AR (FIG. 17); assay type: cell-based
# [2] = test system: VCaP cells expressing mutant F876L androgen receptor; experiment: In vitro cell viability assay, VCaP cells expressing mutant F876L AR (FIG. 17); assay type: cell-based
# [3] = test system: CWR22PC cells expressing wild type androgen receptor; experiment: In vitro cell viability assay (CellTiterGLO), CWR22PC cells expressing wild-type AR (FIG. 18); assay type: cell-based; conditions: 10 uM, days 1, 4, 7
# Protocol: (§1) Compounds of the present invention were also assayed in an in vitro cell viability assay in CWR22PC cancer cells. A representative procedure follows. CWR22PC cells ectopically expressing wild-type AR or AR F876L, cultured in full-serum containing media, were treated with vehicle (DMSO) or 10 uM of enzalutamide or compound I-1. CellTiterGLO assay was performed on days 1, 4, and 7 to determine cell viability. Results of a cell viability assay in CWR22PC cells are depicted in FIG. 18. On the y-axis RLU means relative light units. More light […] means more viable cells. In some embodiments, a provided compound is considered to be a modulator of a tested AR if it results in similar effects on cell viability as compared with a reference androgen or anti-androgen.
# [4] = test system: CWR22PC cells expressing mutant F876L androgen receptor; experiment: In vitro cell viability assay (CellTiterGLO), CWR22PC cells expressing AR F876L (FIG. 18); assay type: cell-based; conditions: 10 uM, days 1, 4, 7
# Protocol: as §1
# AR = target: T1, AR (Homo sapiens, UniProt P10275, DEL79-80/DUP473-473); experiment: AR luciferase reporter assay, competition with DHT (FIG. 25); assay type: cell-based
# T1 construct: expressed in transfected cells; host or cells: CV1 cells
# T1 sequence (P10275 with tags, fused parts or gaps DEL79-80/DUP473-473): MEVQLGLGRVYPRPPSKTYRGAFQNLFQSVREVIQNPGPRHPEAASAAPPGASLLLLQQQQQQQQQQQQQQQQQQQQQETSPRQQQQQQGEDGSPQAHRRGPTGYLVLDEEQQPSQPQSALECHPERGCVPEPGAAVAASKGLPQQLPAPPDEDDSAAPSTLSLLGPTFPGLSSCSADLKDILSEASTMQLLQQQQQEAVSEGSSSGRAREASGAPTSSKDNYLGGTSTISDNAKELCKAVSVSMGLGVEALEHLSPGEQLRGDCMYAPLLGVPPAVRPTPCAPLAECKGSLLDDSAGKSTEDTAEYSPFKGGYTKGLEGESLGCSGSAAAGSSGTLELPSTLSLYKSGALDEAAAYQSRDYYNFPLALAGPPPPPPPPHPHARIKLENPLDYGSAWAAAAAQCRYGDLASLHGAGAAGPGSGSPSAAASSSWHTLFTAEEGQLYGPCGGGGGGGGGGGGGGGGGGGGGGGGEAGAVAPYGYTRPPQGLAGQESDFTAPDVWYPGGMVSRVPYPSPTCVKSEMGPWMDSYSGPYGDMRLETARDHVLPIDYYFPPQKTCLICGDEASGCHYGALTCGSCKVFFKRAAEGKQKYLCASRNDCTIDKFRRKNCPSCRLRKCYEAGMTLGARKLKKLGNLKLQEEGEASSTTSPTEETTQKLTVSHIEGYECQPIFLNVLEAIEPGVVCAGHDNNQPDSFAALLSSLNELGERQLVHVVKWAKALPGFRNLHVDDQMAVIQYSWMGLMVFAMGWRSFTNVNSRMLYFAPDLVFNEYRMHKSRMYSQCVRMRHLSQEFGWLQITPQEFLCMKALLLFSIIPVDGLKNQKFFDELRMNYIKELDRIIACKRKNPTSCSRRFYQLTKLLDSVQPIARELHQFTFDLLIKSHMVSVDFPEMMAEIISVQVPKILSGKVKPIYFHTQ
# Protocol: (§2) Compounds of the present invention were assayed in an in vitro AR luciferase reporter assay reporter assay, which can be used to determine the effect of compounds on AR transcriptional activity. CV1 cells were engineered to express an AR-regulated luciferase reporter, such that luciferase expression indicates AR transcriptional activity. A representative procedure for this assay follows.
# (§3) CV1 cells (10^6 cells/10 cm plate) were cotransfected with 50 ng of SV40 Renilla Luciferase, 5 ug of ARE(4X)-Luciferase, and […] of one pWZL-AR expression construct using Lipofectamine 2000 (Invitrogen). Transfection media was removed 4-6 hours later and replaced with phenol red free DME-HG containing 10% charcoal stripped serum. The following day each plate was split into 24- or 48-well plates, in 10% CSS media, containing the indicated drugs in triplicate. Twenty-four to forty-eight hours later, luciferase activity was assayed using Dual-Luciferase Reporter Assay System (Promega) on a 96-well luminometer (Turner Biosystems). In some embodiments, a provided compound is considered to be a modulator of a tested AR if it results in similar effects on induced expression of luciferase in the luciferase reporter assay as compared with a reference androgen or anti-androgen.
# AR F876L [5] = target: T2, AR F876L (Homo sapiens, UniProt P10275, DEL79-80/DUP473-473/F877L); experiment: AR luciferase reporter assay, AR F876L versus AR WT (FIG. 26); assay type: cell-based
# T2 construct: expressed in transfected cells
# T2 sequence (P10275 with tags, fused parts or gaps DEL79-80/DUP473-473/F877L): T1 sequence (P10275 with tags, fused parts or gaps DEL79-80/DUP473-473) with F876L
# Protocol: as §2, §3
# AR WT [6] = experiment: AR signaling and PARP cleavage in cells expressing AR WT (FIG. 27); assay type: cell-based
# AR F876L [7] = target: T2, AR F876L; experiment: AR signaling and PARP cleavage in cells expressing AR F876L (FIG. 27); assay type: cell-based
# AR WT [8] = conditions: LNCaP cells ectopically expressing AR WT; compared with AR F876L cells
# Protocol: The cells were propagated in RPMI media supplemented with 10% CSS (charcoal-stripped, dextran-treated fetal bovine serum). Cells were trypsinized, washed in PBS, and triplicate cell samples were mixed with 20,000 cpm 18F-FDHT and increasing amounts of cold competitor (0.1 nM to 10 uM). The solutions were shaken on an orbital shaker at ambient temperature, and after 1 hour the cells were isolated and washed with ice-cold Tris-buffered saline using a Brandel cell harvester (Gaithersburg, Md.). All the isolated cell samples were counted using a scintillation counter, with appropriate standards of total activity and blank controls, and the specific uptake of ^18F-FDHT determined.
# mutant AR T877A [9] = target: T3, mutant AR T877A (Homo sapiens, UniProt P10275, DEL79-80/DUP473-473/T878A); conditions: Ozers et al., Biochemistry (2007) 46, 683; cited from earlier work
# T3 sequence (P10275 with tags, fused parts or gaps DEL79-80/DUP473-473/T878A): T1 sequence (P10275 with tags, fused parts or gaps DEL79-80/DUP473-473) with T877A
# mutant AR T877A [10] = target: T3, mutant AR T877A; conditions: cited from earlier work
structure (smiles),measurement,setting,value
"CNC(=O)c1ccc(N2C(=S)N(c3ccc(C#N)c(C(F)(F)F)c3)C(=O)[C@@]23CCCC(C)(C)C3)cc1F (stereo in doubt) [Compound I-1, 4-(3-(4-cyano-3-(trifluoromethyl)phenyl)-7,7-dimethyl-4-oxo-2-thioxo-1,3-diazaspiro[4.5]decan-1-yl)-2-fluoro-N-methylbenzamide]",ability to kill or inhibit the growth of cells,[1],kill or inhibit the growth of VCaP cells
same,ability to kill or inhibit the growth of cells,[2],kill or inhibit the growth of VCaP cells
same,ability to kill or inhibit the growth of cells,[3],kill or inhibit the growth of CWR22PC cells
same,ability to kill or inhibit the growth of cells,[4],kill or inhibit the growth of CWR22PC cells
same,competition with dihydrotestosterone (DHT) for AR binding and induction of AR-regulated luciferase,AR,effectively competes with dihydrotestosterone (DHT)
same,potency as agonist for AR F876L compared with AR WT,AR F876L [5],more potent agonist for AR F876L than AR WT
same,induction of PARP cleavage,AR WT [6],induce PARP cleavage
same,inhibition of AR signaling,AR WT [6],inhibit AR signaling
same,induction of PARP cleavage,AR F876L [7],induce PARP cleavage
same,inhibition of AR signaling,AR F876L [7],inhibit AR signaling
"C[C@]12CCC(=O)C[C@@H]1CC[C@@H]1[C@@H]2CC[C@]2(C)[C@@H](O)CC[C@@H]12 [DHT, dihydrotestosterone]",IC50 for displacement of 18F-FDHT,AR WT [8],comparable IC50
CC(C)(O)C(=O)Nc1ccc([N+](=O)[O-])c(C(F)(F)F)c1 [hydroxyflutamide],binding affinity to mutant AR T877A compared with AR WT,mutant AR T877A [9],higher affinity
same,agonist activity on mutant AR,mutant AR T877A [10],act as AR agonists; also recorded: confers agonism
